Measured values taken from patent US4122184A, “Benzimidazole insecticides” (priority 1977, dated 1978).

Columns and labels:
[1] = tested on: Southern Corn Rootworm Adults; assay: Field trial, stomach poison test; format: in vivo; parameters: key: mortality rating on a 0 to 9 scale
Method: (§1) Leaves from the infested plant are treated with different concentrations of the test compounds, either by spraying with a DeVilbiss Special Atomizer (5004) at 10 psi or by dipping the leaves in solutions containing the compound. The leaves are then allowed to air dry.
(§2) After the leaves have dryed, they are placed in plastic petri dishes (100 × 25 mm), then the insects are counted out into each dish, five or ten insects per dish depending on the number of insects available. There are one or two replicates and usually two or three rates with each compound. Mortality results are taken at 24, 48 and 72 hours. The rating scale is 0 to 9.
(§3) Using the above methods, field trials were carried out against species of 5 orders of insects. The results, which are summarized in the following tables, give the average mortality for the particular insect with a given benzimidazole for each concentration employed. […] These tables contain all results obtained during the summer trials.

[2] = tested on: Southern Corn Rootworm Adults; assay: Field trial, contact poison test; format: in vivo
Source text: (§4) Infested plants are placed in 6 oz. prescription bottles filled with water to keep them from wilting. Cellucotton is wrapped around the plant stem and squeezed into the bottle neck to prevent the insects from drowning.
(§5) A DeVilbiss Special Atomizer (5004) is used at 10 psi to spray the test plant with different concentrations of compounds. The atomizer is held at arm's length to prevent blowing the insects off the host plant. After treating, the bottles are placed on a table covered with brown wrapping paper to catch the dead insects as they drop from the plant. The plants are spaced so the leaves or plants are not touching one another.
(§6) The results are read at 24, 48, and 72 hours when applicable. The rating scale is 0 to 9 where 0 = 0-10 percent and 9 = 91-100 percent mortality.
as §3

Yellow Mealworm Larvae = assay: Field trial, topical application; format: in vivo; parameters: key: 0 = 0-10% mortality, 9 = 91-100% mortality (0-9 scale)
Method: as §6
In a variation of the above test, 1 microliter of a test solution containing a predetermined number of micrograms of benzimidazole was applied directly to larvae or adult insects.
as §3

Oriental Cockroach = assay: Oriental Roach Test; format: in vivo, Blatta orientalis (Orthoptera); settings: 24 h
Method: A rearing pan of late instar (3-4 months old) roaches is placed in a cold room for about 1 hour. Ten nymphs are taken from the pan and placed in each cage and the caged insects are kept at 70°-80° F. for 1 hour. The test cages are then sprayed in the manner indicated above in the milkweed bug test using 5 ml. of a formulation containing a specified amount of the insecticide. The test cages are held for 72 hours during which time the cockroaches are neither fed nor watered. Controls consist of 2 unsprayed cages, two cages sprayed with the formulation alone and 2 cages with a formulation containing 1000 ppm of heptachlor. Mortality counts are made 24 hours after spraying by shaking the cages lightly. All cockroaches remaining in the bottom are counted as dead.

Mexican Bean Beetle = Mexican Bean Beetle Test; format: in vivo, Epilachna varivestis (Coleoptera); settings: 48 h
Method: Cuttings of four six-day old Bountiful snap bean plants containing two leaves with approximately 5 square inches of leaf surface, are placed in water. The leaves are sprayed to wetting with about 5-10 ml. of a formulation containing a pre-determined level of the test compound. Half of the formulation is sprayed on the top surface and half on the bottom surface of the leaf using a DeVilbiss atomizer at 10 psi held at a distance of about 18 inches from the leaf. After the leaves have dried, they are cut from the stem and placed separately in petri dishes. Ten third instar, nonmolting Mexican bean beetle larvae grown on Bountiful snap beans are placed on each leaf. Controls consist of two leaves sprayed with 5 ml. of a 500 ppm malathion formulation (reference standard), two leaves sprayed with the formulation without the active ingredient and two leaves are held as untreated controls. After 48 hours, a mortality count is made and the amount of feeding noted. Moribund larvae are counted as dead.

Milkweed Bug = Milkweed Bug Test; format: in vivo, Oncopeltis fasciatus (Hemiptera); settings: 48 h
Method: Ten adult milkweed bugs are chilled and placed in a test cage. The cages containing the bugs are sprayed with 5 ml. of a test formulation containing a pre-determined amount of the insecticide, using a DeVilbiss atomizer at 10 psi held 33 inches from the top of the cage. After the cage has been allowed to dry, the bugs are fed and watered for 48 hours. A formulation containing 500 ppm of malathion is used as a reference standard and two unsprayed cages are kept as controls. Mortality counts are made 48 hours after spraying. Moribund adults are considered dead. The same rating scale is employed as before.

House Fly [3] = assay: Housefly (Stomach) Test; format: in vivo, Musca domestica (Diptera); settings: 24 h
Method: Ten chilled house flies are taken from the rearing cage and placed in a covered petri dish. Sugar cubes treated with 0.2 ml. of a formulation containing a specified level of the insecticide are placed in the petri dish one hour after the flies have been removed from the chill room. Controls consist of sugar cubes treated with 0.2 ml. of deionized water and cubes treated with 0.2 ml. of a formulation containing 500 ppm of malathion. Mortality counts are made 24 hours later. The same rating scale is used as before.

Boll Weevil = Boll Weevil Test; format: in vivo, Anthonomus grandis (Coleoptera); settings: 48 h
Source text: The procedure is identical to that employed for the Mexican bean beetle and the Southern armyworm, except that 10 adult boll weevils are placed on cotton leaves that have been dipped into formulations of the test compounds. The same rating scale is used.

Two-spotted Spider Mite = Two-spotted Spider Mite test; format: in vivo, Tetranychus urticae (Acarina); settings: 48 h
Method: The procedure in this test is the same as that in the previous aphid test, except that about 100 two-spotted spider mites from a stock colony raised on squash plants are transferred to a cut squash cotyledon. The mortality is estimated 48 hours after spraying. The same rating scale is used.

House Fly [4] = assay: Housefly (Contact) Test; format: in vivo, Musca domestica (Diptera); settings: 24 h
Method: Rearing cages containing four-day old adult house flies are chilled at 35°-40° F. for about 1 hour. One hundred flies are transferred from the rearing cage to each test cage using a small scoop. The caged flies are kept for 1-2 hours at 70°-80° F. The cages are sprayed in the same manner as described for the milkweed bug with 5 ml. of the test formulation. Two unsprayed cages are held as controls and two cages are sprayed with a 50 ppm DDT formulation as a reference standard. Mortality counts are made 24 hours after spraying. […] The same rating scale is employed as heretofore.

Southern Armyworm = Southern Armyworm Test; format: in vivo, Prodenia eridania (Lepidoptera); settings: 500 ppm, 48 h
Method: Ten uniform Southern armyworm larvae about 1-1.5 cm. in length, grown on Henderson lima beans, are placed on excized bean leaves in petri dishes. The bean leaves are obtained and sprayed with the insecticide in the same way as are the snap bean leaves in the Mexican bean beetle test. The reference standards in this instance are leaves sprayed with 5 ml. 100 ppm DDT solution. Mortality counts are made 48 hours after spraying and again moribund larvae are counted as dead. Missing larvae which have probably been eaten are considered alive. The same rating scale is used as in the Mexican bean beetle test.

[5] = tested on: Unidentified Green Leafhopper; assay: Field trial, stomach poison test; format: in vivo; parameters: key: mortality rating on a 0 to 9 scale
Method: as §1, §2, §3

[6] = tested on: Tarnished Plant Bug Adults; assay: Field trial, stomach poison test; format: in vivo; parameters: key: mortality rating on a 0 to 9 scale
Method: as §1, §2, §3

Melon Aphid = Melon Aphid Test; format: in vivo, Aphis gossypii (Hemiptera); settings: 250 ppm, 24 h
Source text: Four blue hubbard squash seeds are planted per container in vermiculite and the containers watered from the bottom. After 6 days, the two weakest plants are cut off and one cotyledon and the primary leaves are removed from each of the two remaining plants. The remaining cotyledon is infested with 100 melon aphids from a stock colony by pinning the cotyledon against an aphid-infested squash cotyledon from the colony and allowing the aphids to transfer. After transfer, the colony leaf is removed. Forty-eight hours later, the infested leaves are sprayed to wetting with formulations containing graded amounts of the insecticide using a DeVilbiss atomizer at 10 psi held at 12-15 inches from the plant. Controls consist of two infested, unsprayed squash plants and two infested plants sprayed to wetting with a formulation containing 100 ppm malathion as a reference standard. The mortality is estimated 24 hours after spraying by observation using a 10 power dissecting microscope. The same rating scale is used as before.

Squash Bug Adults = assay: Field trial, contact poison test; format: in vivo; parameters: key: 0-9 rating: 0 = 0-10% mortality, 9 = 91-100% mortality
Source text: as §4, §5, §6, §3

Meadow Spittlebug = assay: Field trial, stomach poison test; format: in vivo
Method: as §1, §2, §3

Compound: mixture of 7-nitro-1-piperidinothionocarbonyl-2,5-bis(trifluoromethyl)benzimidazole and 4-nitro-1-piperidinothionocarbonyl-2,6-bis(trifluoromethyl)benzimidazole
- average mortality rating ([1]; 25 ppm): 1
- average mortality rating ([1]; 50 ppm): 7
- average mortality rating ([1]; 100 ppm): 3
- average mortality rating ([2]; 25 ppm): 0 (0-10 percent)
- average mortality rating ([2]; 50 ppm): 9 (91-100 percent mortality)
- average mortality rating ([2]; 100 ppm): 9 (91-100 percent mortality)
- average mortality rating (Yellow Mealworm Larvae; 0.03 μg/μl): 3
- average mortality rating (Yellow Mealworm Larvae; 0.07 μg/μl): 3
- average mortality rating (Yellow Mealworm Larvae; 0.15 μg/μl): 3

Compound: CCOC(=O)n1c(C(F)(F)F)nc2c([N+](=O)[O-])cc(C(F)(F)F)cc21 [G, ethyl 2,6-bis(trifluoromethyl)-4-nitro-1-benzimidazolecarboxylate]
- mortality rating (Oriental Cockroach; 1000 ppm): 5.5

Compound: CCOC(=O)CC(SP(=S)(OC)OC)C(=O)OCC (stereo not drawn) [Malathion, reference compound]
- mortality rating (Mexican Bean Beetle; 500 ppm): 7- 8
- mortality rating (Milkweed Bug; 500 ppm): 7-8
- mortality rating (House Fly [3]; 500 ppm): 6-7
- mortality rating (Boll Weevil; 500 ppm): 7-8

Compound: CC(COc1ccc(C(C)(C)C)cc1)OS(=O)OCCCl (stereo not drawn) [Aramite, reference compound]
- mortality rating (Two-spotted Spider Mite; 50 ppm): 7-9

Compound: ClC1=C(Cl)C2(Cl)C3C(Cl)C=CC3C1(Cl)C2(Cl)Cl (stereo not drawn) [Heptachlor, reference compound]
- mortality rating (Oriental Cockroach; 1000 ppm): 8-9

Compound: mixture of N-ethyl-4-nitro-2,6-bis(trifluoromethyl)thio-1-benzimidazolecarboxanilide and N-ethyl-nitro-2,5-bis(trifluoromethyl)thio-1-benzimidazolecarboxanilide
- mortality rating (Mexican Bean Beetle; 10 ppm): 1.5
- mortality rating (Mexican Bean Beetle; 25 ppm): 6 (61-70)
- mortality rating (Mexican Bean Beetle; 50 ppm): 5.5
- mortality rating (Mexican Bean Beetle; 100 ppm): 6.5
- mortality rating (Mexican Bean Beetle; 250 ppm): 9 (91-100)
- mortality rating (Mexican Bean Beetle; 500 ppm): 9 (91-100)
- mortality rating (Mexican Bean Beetle; 1000 ppm): 9 (91-100)
- mortality rating (Milkweed Bug; 1000 ppm): 1 (11-20)
- mortality rating (Two-spotted Spider Mite; 1000 ppm): 5 (51-60)
- mortality rating (House Fly [3]; 1000 ppm): 1 (11-20)
- mortality rating (Boll Weevil; 10 ppm): 0 (0-10)
- mortality rating (Boll Weevil; 25 ppm): 6.5
- mortality rating (Boll Weevil; 50 ppm): 7.5
- mortality rating (Boll Weevil; 100 ppm): 8 (81-90)
- mortality rating (Boll Weevil; 250 ppm): 8.5
- mortality rating (Boll Weevil; 500 ppm): 9 (91-100)
- mortality rating (Boll Weevil; 1000 ppm): 9 (91-100)
- mortality rating (House Fly [4]; 10 ppm): 6.5
- mortality rating (House Fly [4]; 25 ppm): 8.5
- mortality rating (House Fly [4]; 50 ppm): 8 (81-90)
- mortality rating (House Fly [4]; 100 ppm): 8 (81-90)
- mortality rating (House Fly [4]; 250 ppm): 9 (91-100)
- mortality rating (House Fly [4]; 500 ppm): 9 (91-100)
- mortality rating (House Fly [4]; 1000 ppm): 7 (71-80)
- mortality rating (Oriental Cockroach; 1000 ppm): 0 (0-10)

Compound: O=[N+]([O-])c1cc(C(F)F)cc2nc(C(F)(F)F)[nH]c12 [M, 2-trifluoromethyl-4-nitro-6-difluoromethylbenzimidazole]
- mortality rating (Mexican Bean Beetle; 50 ppm): 1.5
- mortality rating (Mexican Bean Beetle; 100 ppm): 5.5
- mortality rating (Mexican Bean Beetle; 500 ppm): 7.5
- mortality rating (Southern Armyworm): .5
- mortality rating (Milkweed Bug; 50 ppm): .5
- mortality rating (Milkweed Bug; 100 ppm): 3.5
- mortality rating (Two-spotted Spider Mite; 100 ppm): 6.5
- mortality rating (Two-spotted Spider Mite; 250 ppm): 8.5
- mortality rating (House Fly [3]; 100 ppm): 5.5
- mortality rating (Boll Weevil; 50 ppm): 1.5
- mortality rating (Boll Weevil; 250 ppm): 8.5
- mortality rating (Boll Weevil; 500 ppm): 8.5
- mortality rating (Boll Weevil; 1000 ppm): 7.5
- mortality rating (House Fly [4]; 10 ppm): 8.5
- mortality rating (Oriental Cockroach; 500 ppm): 1.5

Compound: O=C(Oc1ccc([N+](=O)[O-])cc1)n1c(C(F)(F)F)nc2c([N+](=O)[O-])cc(C(F)(F)F)cc21 [N, p-nitrophenyl-4-nitro-2,6-bis(trifluoromethyl)-1-benzimidazolecarboxylate]
- average mortality rating ([5]; 10 ppm): 0 (0-10 percent)
- average mortality rating ([5]; 25 ppm): 1
- average mortality rating ([5]; 50 ppm): 3
- average mortality rating ([6]; 10 ppm): 3
- average mortality rating ([6]; 25 ppm): 3
- average mortality rating ([6]; 50 ppm): 3
- mortality rating (Two-spotted Spider Mite; 1 ppm): 2.5
- mortality rating (Two-spotted Spider Mite; 5 ppm): 1.5
- mortality rating (Two-spotted Spider Mite; 500 ppm): 8.5
- mortality rating (Melon Aphid): 7.5
- average mortality rating (Squash Bug Adults; 125 ppm): 1
- average mortality rating (Squash Bug Adults; 250 ppm): 6
- average mortality rating (Squash Bug Adults; 500 ppm): 5
- average mortality rating (Squash Bug Adults; 750 ppm): 8
- average mortality rating (Meadow Spittlebug; 10 ppm): 1
- average mortality rating (Meadow Spittlebug; 25 ppm): 1
- average mortality rating (Meadow Spittlebug; 50 ppm): 0 (0-10 percent)
- mortality rating (Boll Weevil; 10 ppm): 1.5
- mortality rating (Boll Weevil; 25 ppm): 3.5
- mortality rating (Oriental Cockroach; 500 ppm): 4.5
- mortality rating (Oriental Cockroach; 1000 ppm): 5.5
- average mortality rating ([2]; 25 ppm): 0 (0-10 percent)
- average mortality rating ([2]; 50 ppm): 5
- average mortality rating ([2]; 100 ppm): 3
- average mortality rating (Yellow Mealworm Larvae; 0.03 μg/μl): 1
- average mortality rating (Yellow Mealworm Larvae; 0.07 μg/μl): 3
- average mortality rating (Yellow Mealworm Larvae; 0.15 μg/μl): 7

Compound: Clc1ccc(C(c2ccc(Cl)cc2)C(Cl)(Cl)Cl)cc1 [DDT, reference compound]
- mortality rating (House Fly [4]; 50 ppm): 6-8
